This note sets out measurements from article PMC5502112 (Brain research, 2017).

Holding throughout (assay): inside-out patch clamp, HEK293
What all share (format): biochemical

In experiment [1] the target is T1, Kir4.1 (Rattus norvegicus, UniProt P49655).
T1 sequence (P49655 1-379): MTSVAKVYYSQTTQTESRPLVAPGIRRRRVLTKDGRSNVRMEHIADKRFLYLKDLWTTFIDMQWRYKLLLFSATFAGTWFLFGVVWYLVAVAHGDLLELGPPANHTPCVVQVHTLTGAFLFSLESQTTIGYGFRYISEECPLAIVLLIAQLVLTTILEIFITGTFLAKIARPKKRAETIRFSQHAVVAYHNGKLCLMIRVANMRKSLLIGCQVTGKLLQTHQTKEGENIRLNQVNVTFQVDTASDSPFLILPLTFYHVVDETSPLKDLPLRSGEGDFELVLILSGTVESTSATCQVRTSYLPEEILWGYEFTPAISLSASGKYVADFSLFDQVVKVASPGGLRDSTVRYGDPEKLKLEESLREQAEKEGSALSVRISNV
The settings on record: read-out: % inhibition at 10 μM.

Experiment [2] deals with T2, Kir4.1 (Rattus norvegicus, UniProt P49655, E158N).
T2 sequence (P49655 1-379 E158N): T1 sequence (P49655 1-379) with E158N
The conditions noted are these: read-out: % inhibition at 10 μM.

For experiment [3], the target named is T3, Kir4.1 (Rattus norvegicus, UniProt P49655, T127A).
T3 sequence (P49655 1-379 T127A): T1 sequence (P49655 1-379) with T127A
The conditions noted are these: read-out: % inhibition at 10 μM.

The target of experiment [4] is T4, Kir4.1 (Rattus norvegicus, UniProt P49655, T128A).
T4 sequence (P49655 1-379 T128A): T1 sequence (P49655 1-379) with T128A
The settings on record: read-out: % inhibition at 10 μM.

For experiment [5], the target named is T1, Kir4.1.

Residue numbers refer to the chain shown, from its start.

`CCN(CC)CCCC(C)Nc1c2ccc(Cl)cc2nc2ccc(OC)cc12` (centres unmarked) [quinacrine]: the inhibition (as a rule, the share of the control response that was lost under treatment) at 10 µM came out at 88.3 ± 1.5% at Kir4.1 [1], 79.8 ± 2.2% at Kir4.1 [2], 89.7 ± 1.1% on Kir4.1 [3] and 66.1 ± 1.1% on Kir4.1 [4]. Further, half-maximal inhibition at Kir4.1 [5] (IC50) was put at 1800 ± 300 nM.
